Data: patent EP1447414B1, “Antagonist peptides of carcinoembryonic antigen (CEA)” (THE GOVERNMENT OF THE UNITED STATES OF AMERICA, as …, priority 1997, dated 2007)
No end group written: not given here.

test system: CEA CTL T-Vac8; test: CTL cytotoxicity screening of the CAP1 analog panel, 111In release from peptide-incubated C1R-A2 cells; format: cell-based, human; details: peptide at 1, 0.1 and 0.01 µg/ml, E:T=1.45:1, isotope release after 4 hours

Question: With `CC[C@H](C)[C@H](NC(=O)[C@H](CC(N)=O)NC(=O)[C@H](C)NC(=O)CNC(=O)[C@H](CO)NC(=O)[C@H](CC(C)C)NC(=O)[C@@H](N)Cc1ccc(O)cc1)C(=O)N[C@@H](CC(N)=O)C(=O)N[C@@H](CC(C)C)C(=O)O` [CAP1-7I] as the compound, how does the “activation of T-Vac8 cytotoxicity (lysis of peptide-incubated targets)” value (shortened to “activation of T-Vac8 cytotoxicity”) read?
Answer: appeared to be active

Question: For YLSGACLNL [CAP1-6C], which “activation of T-Vac8 cytotoxicity” value is on record?
Answer: activated T-Vac8 cytotoxicity and seemed to be equal to or better than CAP1

Question: With YLSGSNLNL [CAP1-5S] as the compound, how does the “activation of T-Vac8 cytotoxicity” value read?
Answer: provided stimulation, albeit at reduced levels compared to CAP1 itself

Question: With YLSGFNLNL [CAP1-5F] as the compound, how does the “activation of T-Vac8 cytotoxicity” value read?
Answer: provided stimulation, albeit at reduced levels compared to CAP1 itself

Question: Which “activation of T-Vac8 cytotoxicity” value does the source give for YLSGINLNL [CAP1-5I] here?
Answer: provided stimulation, albeit at reduced levels compared to CAP1 itself

Question: `CC(C)C[C@H](NC(=O)[C@H](CC(N)=O)NC(=O)[C@H](CC(C)C)NC(=O)[C@H](CC(=O)O)NC(=O)[C@H](C)NC(=O)CNC(=O)[C@H](CO)NC(=O)[C@H](CC(C)C)NC(=O)[C@@H](N)Cc1ccc(O)cc1)C(=O)O` [CAP1-6D] was tested. Which “activation of T-Vac8 cytotoxicity” value did it give?
Answer: activated T-Vac8 cytotoxicity and seemed to be equal to or better than CAP1
